Measurements reported in US7256202B2, “Composition and method for treatment of hepatic encephalopathy” (priority 2003, dated 2007).

System: patient with hepatic encephalopathy
Test: Case report: patient with cryptogenic cirrhosis and hepatic encephalopathy treated with lactulose, then PEG 3350/lactulose
Type: in vivo, human
Text: The patient is a person with cryptogenic cirrhosis, a type of cirrhosis which has unknown etiology. They have had extensive workups for chronic anemia in one of the major California hospitals and was placed on neomycin, Lasix, iron sulfate, lactulose, and Prevacid; they also were on a restricted protein diet to reduce ammonia production. They had intermittent episodes of hepatic encephalopathy during their hospitalization. The patient's hemoglobin slowly drops and they require transfusions periodically because of portal gastropathy. […] Although the therapeutic range is three to four bowel movements per day, it is very difficult for them to get to that range because of these effects.
The patient has required several hospitalizations for lethargy, declines in hemoglobin, and hepatic encephalopathy. They have intermittent episodes of abdominal discomfort and mild irritation of various small bowel loops.
The platelet count is in the range of 57,000. The lowest level of ammonia has been 30 micromoles/L and several levels have been 80 to 90 micromoles/L with the patient taking the lactulose.
The patient has had three hospitalizations for hepatic encephalopathy and anemia, mostly resulting from poor compliance. The patient's last hospitalization was July 22nd. Four months later, the patient presented us with hepatic encephalopathy and bedsores.
They were switched to 17 g MiraLax® (PEG 3350 powder) combined with 10 g of lactulose dissolved in water and given twice a day. The patient's ammonia level is now in the 70 to 75-range of micromoles/L and holding fairly steady on a maintenance dosage of this composition once per day.
They have achieved clinical and therapeutic levels of ammonia levels, and is oriented to time and place, with no clinical signs of hepatic encephalopathy on physical examination.

[1] = lactulose up to three to four times a day

OC[C@H]1O[C@@H](O[C@@H]2[C@@H](CO)OC(O)(CO)[C@H]2O)[C@H](O)[C@@H](O)[C@H]1O (mixture of isomers) [lactulose]
bowel movements per day [1]: three to four to five | side effects with the drug [1]: nausea, abdominal discomfort, and bloating sensation | lowest level of ammonia (patient taking the lactulose): 30 µmol/L
